Patent US8853203B2, “Diazepinone derivatives” (Novartis AG, priority 2012, dated 2014)

Key:
human mGluR5a receptors = human mGluR5a receptors (Homo sapiens (Human), UniProt P41594); experiment: inhibition of glutamate-induced elevation of intracellular calcium in L(tk-) cells expressing human mGluR5a; format: cell-based; conditions: for IC50: glutamate-induced intracellular calcium elevation, L(tk-) cells expressing human mGluR5a, read-out: mGluR5 IC50; for inhibition at 2 µM: LTK, read-out: mGluR5 % inhibition at 2 μM
Sequence of human mGluR5a receptors (P41594 other isoform, or with tags, fused parts or gaps): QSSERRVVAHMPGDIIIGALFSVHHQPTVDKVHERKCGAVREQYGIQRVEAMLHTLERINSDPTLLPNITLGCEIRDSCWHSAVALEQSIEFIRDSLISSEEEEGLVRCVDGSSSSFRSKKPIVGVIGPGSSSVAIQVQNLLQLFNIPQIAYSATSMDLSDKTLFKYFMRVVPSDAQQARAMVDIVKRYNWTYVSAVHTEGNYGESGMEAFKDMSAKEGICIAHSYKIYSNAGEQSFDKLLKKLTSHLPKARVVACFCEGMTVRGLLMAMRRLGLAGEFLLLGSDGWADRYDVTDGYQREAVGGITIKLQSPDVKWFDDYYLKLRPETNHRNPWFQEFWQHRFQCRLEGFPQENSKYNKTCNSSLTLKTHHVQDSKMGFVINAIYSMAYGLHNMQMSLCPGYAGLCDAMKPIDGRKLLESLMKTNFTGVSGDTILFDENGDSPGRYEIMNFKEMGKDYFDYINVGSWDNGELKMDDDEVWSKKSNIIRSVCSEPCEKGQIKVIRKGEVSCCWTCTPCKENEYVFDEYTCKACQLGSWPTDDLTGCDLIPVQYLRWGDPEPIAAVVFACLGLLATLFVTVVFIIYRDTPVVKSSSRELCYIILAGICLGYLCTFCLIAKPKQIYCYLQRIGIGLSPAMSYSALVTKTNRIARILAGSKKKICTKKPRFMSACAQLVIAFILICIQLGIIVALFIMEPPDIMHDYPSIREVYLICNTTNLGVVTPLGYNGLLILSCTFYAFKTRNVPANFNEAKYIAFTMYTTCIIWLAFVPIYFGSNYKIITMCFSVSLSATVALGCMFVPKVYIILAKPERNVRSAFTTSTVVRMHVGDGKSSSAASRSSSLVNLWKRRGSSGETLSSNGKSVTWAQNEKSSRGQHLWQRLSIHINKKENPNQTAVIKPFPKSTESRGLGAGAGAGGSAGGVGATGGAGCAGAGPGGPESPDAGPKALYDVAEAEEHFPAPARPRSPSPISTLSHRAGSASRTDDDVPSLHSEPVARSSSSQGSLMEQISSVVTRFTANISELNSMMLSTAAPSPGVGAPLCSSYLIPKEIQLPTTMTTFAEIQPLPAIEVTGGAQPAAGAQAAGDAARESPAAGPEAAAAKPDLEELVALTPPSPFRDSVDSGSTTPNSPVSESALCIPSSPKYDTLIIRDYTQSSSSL
Summary of the method: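 Compounds tested for inhibition of the glutamate-induced rise in intracellular calcium concentration in L(tk-) cells stably expressing human mGluR5a.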

human mGluR1 = human mGluR1 (Homo sapiens (Human), UniProt Q13255); experiment: mGluR1 antagonism, L-glutamate induced intracellular calcium increase (FLIPR) in CHO cells stably expressing human mGluR1; format: cell-based; conditions: L-glutamate induced intracellular calcium, CHO cells expressing human mGluR1, FLIPR
Sequence of human mGluR1 (Q13255 19-1194): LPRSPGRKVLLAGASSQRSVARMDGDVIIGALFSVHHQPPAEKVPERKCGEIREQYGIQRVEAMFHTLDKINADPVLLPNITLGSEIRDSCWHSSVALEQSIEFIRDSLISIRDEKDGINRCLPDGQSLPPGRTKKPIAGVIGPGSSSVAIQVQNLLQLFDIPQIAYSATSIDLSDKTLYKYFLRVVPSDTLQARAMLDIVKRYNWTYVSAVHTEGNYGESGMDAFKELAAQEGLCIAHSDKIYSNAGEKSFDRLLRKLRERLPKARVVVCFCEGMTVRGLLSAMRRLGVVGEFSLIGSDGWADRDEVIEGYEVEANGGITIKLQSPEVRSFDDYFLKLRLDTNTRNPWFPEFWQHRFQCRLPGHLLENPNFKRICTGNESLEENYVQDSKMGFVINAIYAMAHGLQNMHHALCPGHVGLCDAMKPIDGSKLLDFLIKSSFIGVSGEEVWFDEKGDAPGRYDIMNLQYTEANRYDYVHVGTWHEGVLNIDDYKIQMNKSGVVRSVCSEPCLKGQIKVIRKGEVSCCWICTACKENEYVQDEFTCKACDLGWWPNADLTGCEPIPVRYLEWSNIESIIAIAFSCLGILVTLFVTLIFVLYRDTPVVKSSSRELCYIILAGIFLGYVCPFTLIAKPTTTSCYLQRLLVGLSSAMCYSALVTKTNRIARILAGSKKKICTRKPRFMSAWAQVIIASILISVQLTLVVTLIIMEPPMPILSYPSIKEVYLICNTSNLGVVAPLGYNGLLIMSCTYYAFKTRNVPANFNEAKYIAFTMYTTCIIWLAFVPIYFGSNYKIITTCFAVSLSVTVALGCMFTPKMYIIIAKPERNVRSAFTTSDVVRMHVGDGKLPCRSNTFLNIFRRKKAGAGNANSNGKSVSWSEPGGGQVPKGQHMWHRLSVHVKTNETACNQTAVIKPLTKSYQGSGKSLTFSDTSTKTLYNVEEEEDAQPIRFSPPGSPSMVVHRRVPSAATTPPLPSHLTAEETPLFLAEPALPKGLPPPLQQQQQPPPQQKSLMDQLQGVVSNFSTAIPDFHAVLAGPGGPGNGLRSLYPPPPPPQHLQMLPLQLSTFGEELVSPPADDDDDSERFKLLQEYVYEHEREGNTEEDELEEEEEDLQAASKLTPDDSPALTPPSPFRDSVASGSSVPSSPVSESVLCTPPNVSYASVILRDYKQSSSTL

Row | Compound | IC50 (human mGluR5a receptors) [nM] | IC50 (human mGluR1) [nM] | inhibition at 2 µM (human mGluR5a receptors) [%]
1 | CCc1ncn(C2=NCC(=O)N3CCc4c(cccc4-c4ccc(F)nc4)C3=C2)n1 [Example 102, 2-(3-ethyl-1H-1,2,4-triazol-1-yl)-9-(6-fluoropyridin-3-yl)-7,8-dihydro-[1,4]diazepino[7,1-a]isoquinolin-5(4H)-one] | 16 | > 10000 | –
2 | Cc1cc(-c2cccc3c2CCN2C(=O)CN=C(n4cnc(C5CC5)c4)C=C32)sn1 [Example 103, 2-(4-cyclopropyl-1H-imidazol-1-yl)-9-(3-methylisothiazol-5-yl)-7,8-dihydro-[1,4]diazepino[7,1-a]isoquinolin-5(4H)-one] | 18 | > 10000 | –
3 | O=C1CN=C(n2cnc(C3CC3)c2)C=C2c3cccc(-c4ncco4)c3CCN12 [Example 104, 2-(4-cyclopropyl-1H-imidazol-1-yl)-9-(oxazol-2-yl)-7,8-dihydro-[1,4]diazepino[7,1-a]isoquinolin-5(4H)-one] | 7 | 1300 | –
4 | C#Cc1cn(C2=NCC(=O)N3CCc4c(cccc4-c4cscn4)C3=C2)cn1 [Example 105, 2-(4-ethynyl-1H-imidazol-1-yl)-9-(thiazol-4-yl)-7,8-dihydro-[1,4]diazepino[7,1-a]isoquinolin-5(4H)-one] | 122 | > 10000 | –
5 | O=C1CN=C(n2cnc(-c3ncco3)c2)C=C2c3cccc(-c4cccnc4F)c3CCN12 [Example 106, 9-(2-fluoropyridin-3-yl)-2-(4-(oxazol-2-yl)-1H-imidazol-1-yl)-7,8-dihydro-[1,4]diazepino[7,1-a]isoquinolin-5(4H)-one] | 182 | > 10000 | –
6 | COC1(c2cn(C3=NCC(=O)N4CCc5c(cccc5-c5ccc(F)nc5)C4=C3)cn2)CC1 [Example 106a, 9-(6-fluoropyridin-3-yl)-2-(4-(1-methoxycyclopropyl)-1H-imidazol-1-yl)-7,8-dihydro-[1,4]diazepino[7,1-a]isoquinolin-5(4H)-one] | 68 | > 10000 | –
7 | Cc1cn(C2=NCC(=O)N3CCc4c(cccc4-c4cnccn4)C3=C2)cn1 [Example 106b, 2-(4-methyl-1H-imidazol-1-yl)-9-(pyrazin-2-yl)-7,8-dihydro-[1,4]diazepino[7,1-a]isoquinolin-5(4H)-one] | 168 | 7330 | –
8 | O=C1CN=C(n2cnc(C3(O)COC3)c2)C=C2c3cccc(-c4ccc(F)nc4)c3CCN12 [Example 106c, 9-(6-fluoropyridin-3-yl)-2-(4-(3-hydroxyoxetan-3-yl)-1H-imidazol-1-yl)-7,8-dihydro-[1,4]diazepino[7,1-a]isoquinolin-5(4H)-one] | 1090 | > 10000 | –
9 | CC1=C2c3cccc(-c4cc(C)no4)c3CCN2C(=O)CN=C1n1cnc(C2CC2)c1 [Example 107, 2-(4-cyclopropyl-1H-imidazol-1-yl)-1-methyl-9-(3-methylisoxazol-5-yl)-7,8-dihydro-[1,4]diazepino[7,1-a]isoquinolin-5(4H)-one] | 835 | > 10000 | –
10 | Cc1nc(-c2cccc3c2CCN2C(=O)CN=C(n4cnc(C5CC5)c4)C=C32)co1 [Example 108, 2-(4-cyclopropyl-1H-imidazol-1-yl)-9-(2-methyloxazol-4-yl)-7,8-dihydro-[1,4]diazepino[7,1-a]isoquinolin-5(4H)-one] | 18 | 3300 | –
11 | Cc1nc(-c2cccc3c2CCN2C(=O)CN=C(n4cnc(C5CC5)n4)C=C32)co1 [Example 108a, 2-(3-cyclopropyl-1H-1,2,4-triazol-1-yl)-9-(2-methyloxazol-4-yl)-7,8-dihydro-[1,4]diazepino[7,1-a]isoquinolin-5(4H)-one] | 91 | > 10000 | –
12 | Cc1cn(C2=NCC(=O)N3CCc4c(cccc4-c4coc(C)n4)C3=C2)cn1 [Example 108c, 2-(4-methyl-1H-imidazol-1-yl)-9-(2-methyloxazol-4-yl)-7,8-dihydro-[1,4]diazepino[7,1-a]isoquinolin-5(4H)-one] | 115 | > 10000 | –
13 | O=C1CN=C(n2cnc(C3CC3)c2)C=C2c3cccc(-c4cnco4)c3CCN12 [Example 109, 2-(4-cyclopropyl-1H-imidazol-1-yl)-9-(oxazol-5-yl)-7,8-dihydro-[1,4]diazepino[7,1-a]isoquinolin-5(4H)-one] | 10 | 1800 | –
14 | O=C1CN=C(n2cnc(C3CC3)c2)C=C2c3ccnc(-c4ccc(F)nc4)c3CCN12 [Example 110, 2-(4-cyclopropyl-1H-imidazol-1-yl)-9-(6-fluoropyridin-3-yl)-7,8-dihydro-[1,4]diazepino[7,1-a][2,6]naphthyridin-5(4H)-one] | 270 | > 10000 | –
15 | O=C1CN=C(n2cnc(C3CC3)c2)C=C2c3ccnc(C4CC4)c3CCN12 [Example 110a, 9-cyclopropyl-2-(4-cyclopropyl-1H-imidazol-1-yl)-7,8-dihydro-[1,4]diazepino[7,1-a][2,6]naphthyridin-5(4H)-one] | 328 | > 2000 | –
16 | O=C1CN=C(n2cnc(C3CC3)n2)C=C2c3ccnc(C4CC4)c3CCN12 [Example 110b, 9-cyclopropyl-2-(3-cyclopropyl-1H-1,2,4-triazol-1-yl)-7,8-dihydro-[1,4]diazepino[7,1-a][2,6]naphthyridin-5(4H)-one] | 758 | > 10000 | –

Row | Compound | IC50 (human mGluR5a receptors) [nM] | IC50 (human mGluR1) [nM] | inhibition at 2 µM (human mGluR5a receptors) [%]
17 | CO[C@H](C)c1cn(C2=NCC(=O)N3CCc4c(ccnc4C4CC4)C3=C2)cn1 [Example 110c, (R)-9-cyclopropyl-2-(4-(1-methoxyethyl)-1H-imidazol-1-yl)-7,8-dihydro-[1,4]diazepino[7,1-a][2,6]naphthyridin-5(4H)-one] | – | > 10000 | 72
18 | O=C1CN=C(n2cnc(C(F)F)c2)C=C2c3ccnc(C4CC4)c3CCN12 [Example 110d, 9-cyclopropyl-2-(4-(difluoromethyl)-1H-imidazol-1-yl)-7,8-dihydro-[1,4]diazepino[7,1-a][2,6]naphthyridin-5(4H)-one] | – | > 10000 | 57
19 | CC(C)(C)c1cn(C2=NCC(=O)N3CCc4c(cccc4C4CCCO4)C3=C2)cn1 (centres unmarked) [Example 112, 2-(4-(tert-butyl)-1H-imidazol-1-yl)-9-(tetrahydrofuran-2-yl)-7,8-dihydro-[1,4]diazepino[7,1-a]isoquinolin-5(4H)-one] | 515 | > 10000 | –
20 | CCc1cn(C2=NCC(=O)N3CCc4c(cccc4C4(F)CCC4)C3=C2)cn1 [Example 113, 2-(4-ethyl-1H-imidazol-1-yl)-9-(1-fluorocyclobutyl)-7,8-dihydro-[1,4]diazepino[7,1-a]isoquinolin-5(4H)-one] | 120 | 2300 | –
21 | CCc1cn(C2=NCC(=O)N3CCc4c(cccc4C4(F)COC4)C3=C2)cn1 [Example 114, 2-(4-ethyl-1H-imidazol-1-yl)-9-(3-fluorooxetan-3-yl)-7,8-dihydro-[1,4]diazepino[7,1-a]isoquinolin-5(4H)-one] | 1600 | > 10000 | –
22 | CC(=O)c1cccc2c1CCN1C(=O)CN=C(n3cnc(C)c3)C=C21 [Example 116, 9-acetyl-2-(4-methyl-1H-imidazol-1-yl)-7,8-dihydro-[1,4]diazepino[7,1-a]isoquinolin-5(4H)-one] | 410 | > 10000 | –
23 | CC(=O)c1cccc2c1CCN1C(=O)CN=C(n3cnc(C4CCC4)c3)C=C21 [Example 117, 9-acetyl-2-(4-cyclobutyl-1H-imidazol-1-yl)-7,8-dihydro-[1,4]diazepino[7,1-a]isoquinolin-5(4H)-one] | 35 | 660 | –
24 | C=C(C)c1cccc2c1CCN1C(=O)CN=C(n3cnc([C@@H](C)OC)c3)C=C21 [Example 118, (R)-2-(4-(1-methoxyethyl)-1H-imidazol-1-yl)-9-(prop-1-en-2-yl)-7,8-dihydro-[1,4]diazepino[7,1-a]isoquinolin-5(4H)-one] | 18 | > 10000 | –
25 | C=C(C)c1cccc2c1CCN1C(=O)CN=C(n3cnc([C@H](C)OC)c3)C=C21 [Example 119, (S)-2-(4-(1-methoxyethyl)-1H-imidazol-1-yl)-9-(prop-1-en-2-yl)-7,8-dihydro-[1,4]diazepino[7,1-a]isoquinolin-5(4H)-one] | 24 | 2600 | –
26 | COCc1cn(C2=NCC(=O)N3CCc4c(C5=CCCC5)cccc4C3=C2)cn1 [Example 120, 9-(cyclopent-1-en-1-yl)-2-(4-(methoxymethyl)-1H-imidazol-1-yl)-7,8-dihydro-[1,4]diazepino[7,1-a]isoquinolin-5(4H)-one] | 7 | 890 | –
27 | C=C(C)c1cccc2c1CCN1C(=O)CN=C(n3cnc(COC)c3)C=C21 [Example 121, 2-(4-(methoxymethyl)-1H-imidazol-1-yl)-9-(prop-1-en-2-yl)-7,8-dihydro-[1,4]diazepino[7,1-a]isoquinolin-5(4H)-one] | 14 | 490 | –
28 | CO[C@@H](C)c1cn(C2=NCC(=O)N3CCc4c(cccc4C4CC4)C3=C2)cn1 [Example 122, (S)-9-cyclopropyl-2-(4-(1-methoxyethyl)-1H-imidazol-1-yl)-7,8-dihydro-[1,4]diazepino[7,1-a]isoquinolin-5(4H)-one] | 5 | 1100 | –
29 | CO[C@H](C)c1cn(C2=NCC(=O)N3CCc4c(cccc4C4CC4)C3=C2)cn1 [Example 123, (R)-9-cyclopropyl-2-(4-(1-methoxyethyl)-1H-imidazol-1-yl)-7,8-dihydro-[1,4]diazepino[7,1-a]isoquinolin-5(4H)-one] | 3 | 7000 | –
30 | O=C1CN=C(n2cnc(-c3cnco3)c2)C=C2c3cccc(C4CC4)c3CCN12 [Example 123a, 9-cyclopropyl-2-(4-(oxazol-5-yl)-1H-imidazol-1-yl)-7,8-dihydro-[1,4]diazepino[7,1-a]isoquinolin-5(4H)-one] | 12 | > 2000 | –
31 | O=C1CN=C(n2cnc(-c3ccno3)c2)C=C2c3cccc(C4CC4)c3CCN12 [Example 123b, 9-cyclopropyl-2-(4-(isoxazol-5-yl)-1H-imidazol-1-yl)-7,8-dihydro-[1,4]diazepino[7,1-a]isoquinolin-5(4H)-one] | 1 | 2340 | –
